The values below come from PMC2907371, “Antiviral biflavonoids from Radix Wikstroemiae (Liaogewanggen)” (Chinese Medicine, 2010).

pIC50: −log10 of the molar value.

The first data set concerns HIV-1.
Assay: not given
Set-up: method as in PMID 10985087. The settings on record: cited from earlier work.
Turning to `COc1cc(C[C@@H]2COC(=O)[C@@]2(O)Cc2ccc(O)c(OC)c2)ccc1O` [(+)-nortrachelogenin], the “activity against HIV-1 in vitro (in words)” value is listed as “moderately active”.

Take `O=C(c1c(O)cc(O)cc1O)c1c(-c2ccc(O)cc2)oc2cc(O)c3c(c12)O[C@H](c1ccc(O)cc1)[C@@H](O)C3` [daphnodorin B]: the “activity against HIV-1 in vitro (in words)” value is “moderately active”.

With `O=C1c2c(O)cc(O)cc2O[C@@]12c1c(cc(O)c3c1O[C@H](c1ccc(O)cc1)[C@@H](O)C3)O[C@@H]2c1ccc(O)cc1` [genkwanol A], the “activity against HIV-1 in vitro (in words)” value is reported as “moderately active”.

Consider `O=c1c(-c2c(O)cc(O)c3c2O[C@H](c2ccc(O)cc2)[C@@H](O)C3)c(-c2ccc(O)cc2)oc2cc(O)cc(O)c12` [wikstrol B], for which the “activity against HIV-1 in vitro (in words)” value is listed as “moderately active”.

System in a further data set: not listed separately
In words: Cytotoxicity assay (MTT method). The class given is cell-based. The settings on record: human, concentration with half maximal inhibition on growth and survival of HEp-2 cells, mean (SD), n = 3. The method, then:
(§1) Human larynx epidermoid carcinoma cell line (HEp-2, CCL-23) and RSV (long strain, VR-26) were purchased from the American Type Culture Collection (ATCC, USA). The cells were grown in Eagle's minimum essential medium (EMEM) (Gibco, USA) supplemented with 10% fetal bovine serum (FBS) (Gibco, USA), 25 μg/ml gentamicin (Sigma, USA) and […] L-glutamine (Sigma, USA) (growth medium). Virus-infected cells were maintained in EMEM with 1% FBS, 25 μg/ml gentamicin and […] L-glutamine (maintenance medium). All the cells were cultured at 37°C in a humidified atmosphere supplied with 5% CO2. Virus titers were determined by the 50% tissue culture infective dose (TCID50) method.
Cell viability was tested by the 3-(4,5-dimethylthiazol-2-yl)-2,5-diphenyl tetrazolium bromide (MTT) method as described in previous study. Briefly, 100 μl of two-fold diluted samples were added to a 96-well plate containing confluent cell monolayer in triplicates while the dilution medium without the sample was the control. After 72 hours of incubation, 12 μl of the MTT solution (5 mg/ml in phosphate buffered saline) was added to each well. The trays were further incubated for four hours for the formation of blue formazan. After the supernatant was removed, the blue formazan was solubilized in 100 μl DMSO and the optical density (OD) was measured at 570 nm with a microplate reader.
Regarding `O=C1c2c(O)cc(O)cc2O[C@H](c2ccc(O)cc2)[C@H]1[C@@H]1C(=O)c2c(O)cc(O)cc2O[C@@H]1c1ccc(O)cc1` [Compound I, neochamaejasmin B], it took 29.9 µM to reach half-maximal cytotoxicity (CC50 at 72 h).

In turn, `O=C1C=C2O[C@@H](c3ccc(O)cc3)[C@]3(O)C(=O)c4c(O)cc(O)cc4O[C@]23C2=C1C[C@H](O)[C@@H](c1ccc(O)cc1)O2` [Compound II, genkwanol B] returned a half-maximal cytotoxic concentration (CC50) at 72 h of 106 µM.

As for `O=C1C=C2O[C@H](c3ccc(O)cc3)[C@@]3(O)C(=O)c4c(O)cc(O)cc4O[C@@]23C2=C1C[C@H](O)[C@@H](c1ccc(O)cc1)O2` [Compound III, genkwanol C], it took 145 µM to reach half-maximal cytotoxicity (CC50 at 72 h).

`O=C1C=C2O[C@H](c3ccc(O)cc3)[C@@]3(O)C(=O)c4c(O)cc(O)cc4O[C@@]23C2=C1C[C@@H](O)[C@@H](c1ccc(O)cc1)O2` [Compound IV, stelleranol] registered a CC50 at 72 h of 162 µM.

`NC(=O)c1ncn([C@@H]2O[C@H](CO)[C@@H](O)[C@H]2O)n1` [Ribavirin, reference compound] had a CC50 at 72 h of 256 µM.

For another data set, the system named is RSV (long strain, VR-26). Briefly: CPE reduction assay, in vitro antiviral activity against RSV. The class given is cell-based, respiratory syncytial virus. The settings on record: CPE reduction assay, in vitro. As to the method: as §1
CPE reduction assay was adopted for screening the in vitro antiviral activity as described in the previous study. Briefly, 0.1 ml of 100 TCID50 virus suspension and serial two-fold dilutions of the tested samples were added simultaneously to confluent cell monolayers in a 96-well plate. Virus suspension and maintenance medium without samples were added as the virus control and cell control, respectively. The plates were incubated at 37°C in a humidified CO2 atmosphere for 3-5 days. The virus-induced CPE was scored against the virus control under a light microscope. Ribavirin (Sigma, USA) was used as positive control in this experiment.
With `O=C1c2c(O)cc(O)cc2O[C@H](c2ccc(O)cc2)[C@H]1[C@@H]1C(=O)c2c(O)cc(O)cc2O[C@@H]1c1ccc(O)cc1` [Compound I, neochamaejasmin B], the “anti-RSV activity (in words)” value is listed as “did not show anti-RSV effect”.

Turning to `O=C1C=C2O[C@@H](c3ccc(O)cc3)[C@]3(O)C(=O)c4c(O)cc(O)cc4O[C@]23C2=C1C[C@H](O)[C@@H](c1ccc(O)cc1)O2` [Compound II, genkwanol B], the “anti-RSV activity (in words)” value is on record as “potent anti-RSV activity”.

As for `O=C1C=C2O[C@H](c3ccc(O)cc3)[C@@]3(O)C(=O)c4c(O)cc(O)cc4O[C@@]23C2=C1C[C@H](O)[C@@H](c1ccc(O)cc1)O2` [Compound III, genkwanol C], the “anti-RSV activity (in words)” value is “potent anti-RSV activity”.

With `O=C1C=C2O[C@H](c3ccc(O)cc3)[C@@]3(O)C(=O)c4c(O)cc(O)cc4O[C@@]23C2=C1C[C@@H](O)[C@@H](c1ccc(O)cc1)O2` [Compound IV, stelleranol], the “anti-RSV activity (in words)” value is “potent anti-RSV activity”.

The data set is the same for the next values; noted with them: CPE reduction assay, in vitro; listed as neochamaejasmin B.
Turning to `O=C1c2c(O)cc(O)cc2O[C@H](c2ccc(O)cc2)[C@H]1[C@@H]1C(=O)c2c(O)cc(O)cc2O[C@@H]1c1ccc(O)cc1` [Compound I, neochamaejasmin B], the “anti-RSV activity (in words)” value is given as “did not”.

Staying with this data set, now noted: CPE reduction assay; highest concentration tested = maximal non-cytotoxic concentration.
On to `O=C1c2c(O)cc(O)cc2O[C@H](c2ccc(O)cc2)[C@H]1[C@@H]1C(=O)c2c(O)cc(O)cc2O[C@@H]1c1ccc(O)cc1` [Compound I, neochamaejasmin B], for which the “IC50 (symbol)” value is listed as “-”.

The same data set, now with this note: human respiratory syncytial virus; concentration that reduced 50% of CPE in respect to virus control; RSV in HEp-2 cells; mean (SD), n = 3.
The compound `O=C1C=C2O[C@@H](c3ccc(O)cc3)[C@]3(O)C(=O)c4c(O)cc(O)cc4O[C@]23C2=C1C[C@H](O)[C@@H](c1ccc(O)cc1)O2` [Compound II, genkwanol B] had a pIC50 of 5.02.

For `O=C1C=C2O[C@H](c3ccc(O)cc3)[C@@]3(O)C(=O)c4c(O)cc(O)cc4O[C@@]23C2=C1C[C@H](O)[C@@H](c1ccc(O)cc1)O2` [Compound III, genkwanol C], the pIC50 is 5.18.

On to `O=C1C=C2O[C@H](c3ccc(O)cc3)[C@@]3(O)C(=O)c4c(O)cc(O)cc4O[C@@]23C2=C1C[C@@H](O)[C@@H](c1ccc(O)cc1)O2` [Compound IV, stelleranol], for which the pIC50 is 4.99.

With `NC(=O)c1ncn([C@@H]2O[C@H](CO)[C@@H](O)[C@H]2O)n1` [Ribavirin, reference compound], the pIC50 is 4.92.

The data set is the same for the next values; noted with them: ratio of CC50 to IC50.
Consider `O=C1C=C2O[C@@H](c3ccc(O)cc3)[C@]3(O)C(=O)c4c(O)cc(O)cc4O[C@]23C2=C1C[C@H](O)[C@@H](c1ccc(O)cc1)O2` [Compound II, genkwanol B], for which the SI stood at 11.0.

For the compound `O=C1C=C2O[C@H](c3ccc(O)cc3)[C@@]3(O)C(=O)c4c(O)cc(O)cc4O[C@@]23C2=C1C[C@H](O)[C@@H](c1ccc(O)cc1)O2` [Compound III, genkwanol C], the SI is recorded as 21.9.

As for `O=C1C=C2O[C@H](c3ccc(O)cc3)[C@@]3(O)C(=O)c4c(O)cc(O)cc4O[C@@]23C2=C1C[C@@H](O)[C@@H](c1ccc(O)cc1)O2` [Compound IV, stelleranol], the SI was 15.8.

Turning to `NC(=O)c1ncn([C@@H]2O[C@H](CO)[C@@H](O)[C@H]2O)n1` [Ribavirin, reference compound], the SI amounted to 21.6.
